Measurements published in ChEMBL document CHEMBL3832552, “DailyMed|setid=e3780ba1-46ef-410c-b2fc-f1ffbfb598f3 | SULAR - nisoldipine tablet, film coated, extended release|Physicians Total Care, Inc”.

Assay: Evaluation of pharmacokinetic parameters for Nisoldipine following oral administration of 17 to 51 mg of Nisoldipine extended release tablets.
Type: ADME, organism-based
Settings: human, in vivo, dose 17-51 mg, dosed compound id 7, dosed compound name NISOLDIPINE, tissue Plasma

Tmax: 9.2 h
bioavailability: 5%
half-life (read-out: t1/2-elimination (converted)): 13.7 h
SMILES: COC(=O)C1=C(C)NC(C)=C(C(=O)OCC(C)C)C1c1ccccc1[N+](=O)[O-] (stereo not drawn) [NISOLDIPINE]
